Measured values: patent US11020391B2, “CRMP2 sumoylation inhibitors and uses thereof” (ARIZONA BOARD OF REGENTS ON BEHALF OF THE UNIVERSITY OF …, priority 2015, dated 2021)

Key:
[1] = PK profile of compound AZ002; settings: in vivo
Source text: In some instances, compounds of the invention are provided as a pharmaceutical acceptable salt. Suitable pharmaceutical acceptable salts include those disclosed herein. In some embodiments, pharmaceutically acceptable salts of compounds of the invention provide a better pharmacokinetics.

[2] = system: spared nerve injury model of neuropathic pain; experiment: Spared nerve injury model, mechanical hypersensitivity (paw withdrawal threshold); assay type: in vivo, rat; settings: spinal administration 5 μg/10 μL; 7 days post-injury; n=6
Description: Rat Behavioral Pain Assay: Compound AZ002 reversed mechanical hypersensitivity in a model of nerve-injury induced chronic pain.
Data was analyzed using one-way ANOVA followed by Dunnett's Multiple Comparison Test using post injury baseline as control.
Indwelling intrathecal catheter: Rats were anesthetized (ketamine/xylazine anesthesia, 80/12 mg/kg i.p.; Sigma-Aldrich) and placed in a stereotaxic head holder. The cisterna magna was exposed and incised, and an 8-cm catheter (PE-10; Stoelting) was implanted terminating in the lumbar region of the spinal cord. Catheters were sutured (3-0 silk suture) into the deep muscle and externalized at the back of the neck; skin was closed with autoclips. After a recovery period of 5-7 days after implantation of the indwelling cannula, the spared nerve injury was induced.
Spared Nerve Injury (SNI): Under isoflurane anesthesia (5% induction, 2.0% maintenance in 2 L/min air), skin on the lateral surface of the left hind thigh was incised. […]
Mechanical Allodynia: Rats were allowed to acclimate within suspended wire mesh cages for 30 minutes prior to behavioral assessment. […] Paw withdrawal thresholds were calculated in grams using the Dixon non-parametric test and expressed as the Paw Withdrawal Threshold (mean±standard error; SEM) in GraphPad Prism 6.0. […]

[3] = system: TTX-S NaV1.7 currents in rat DRGs; experiment: Patch clamp TTX-S NaV1.7 currents in rat DRGs; assay type: cell-based; settings: FIG. 5
Description: Culturing and Transfection of rat Primary Dorsal Root Ganglia (DRG) Neurons: Rat DRG neurons were isolated from 150-174 g Sprague-Dawley rats and then transfected using known procedures. In brief, removing dorsal skin and muscle and cutting the vertebral bone processes parallel to the dissection stage exposed DRGs. DRGs were then collected, trimmed at their roots, and digested in 3 ml bicarbonate free, serum free, sterile DMEM (Cat #11965, Thermo Fisher Scientific, Waltham, Mass.) solution containing neutral protease (3.125 mg·ml-1, Cat #LS02104, Worthington, Lakewood, N.J.) and collagenase Type I (5 mg·ml-1, Cat #LS004194, Worthington, Lakewood, N.J.) and incubated for 45 min at 37° C. under gentile agitation. Dissociated DRG neurons (˜1.5×106) were then gently centrifuged to collect cells and washed with DRG media DMEM containing 1% penicillin/streptomycin sulfate from 10 000 μg/ml stock, 30 ng.ml-1 nerve growth factor, and 10% fetal bovine serum (Hyclone). Collected cells were re-suspended in Nucleofector transfection reagent containing plasmids or siRNA at the working concentrations listed above. Then, cells were subjected to electroporation protocol O-003 in an Amaxa Biosystem (Lonza, Basel, Switzerland) and plated onto poly-D-lysine—and laminin-coated glass 12- or 15-mm coverslips. Transfection efficiencies were routinely between 20% and 30% with about ˜10% cell death. […]

[4] = system: TTX-S NaV1.7 currents in human DRGs; experiment: Patch clamp H-infinity subtracted NaV1.7 currents in human DRGs; assay type: cell-based; settings: FIG. 5
Description: Patch Clamp Electrophysiology: Whole cell voltage clamp and current clamp recordings were performed at room temperature using an EPC 10 Amplifier-HEKA. The internal solution for voltage clamp CAD cell recordings contained (in mM): 110CsCl, 5 MgSO4, 10 EGTA, 4 ATP Na2-ATP, and 25 HEPES (pH 7.3, 290-310 mOsm/L) and external solution contained (in mM): 100 NaCl, 10 tetraethylammonium chloride, 1 CaCl2, 1 CdCl2, 1 MgCl2, 10 D-glucose, 4 4-aminopyridine, 0.1 NiCl2, 10 HEPES (pH 7.3, 310-315 mosM/L). For DRG and HEK293 cells the internal solution for voltage clamp contained (in mM): 140CsF, 1.1Cs-EGTA, 10 NaCl, and 15 HEPES (pH 7.3, 290-310 mOsm/L) and external solution contained (in mM): 140 NaCl, 3 KCl, 30 tetraethylammonium chloride, 1 CaCl2, 0.5 CdCl2, 1 MgCl2, 10 D-glucose, 10 HEPES (pH 7.3, 310-315 mosM/L). […]
Voltage clamp protocols: CAD and HEK293 cells were subjected to current-density (I-V) and fast-inactivation voltage protocols. […] The TTX-R peak current density was always measured at depolarizations near 0 mV and within 10 ms of the voltage step protocol. […] Thus, sodium current present at 150 ms following a voltage pulse to −60 mV was analyzed, an established method of isolating Nav1.9 current. […]

[5] = system: human DRGs in a mixed glia-DRG co-culture; experiment: Cell morphology or health of human DRGs after overnight incubation; assay type: cell-based

## COc1cc(OC)cc(C(=O)Nc2ccc(N3CCN(C)CC3)cc2)c1 [AZ002]
[1]
  Cmax: 263 ng/mL
  Tmax: 2 h
  half-life: 348 min
[1]; 0-24 hr
  AUC(0-t): 2380 ng·h/mL
[1]; read-out: bioavailability (F)
  bioavailability: 31%
[2]
  reversal of mechanical hypersensitivity: significantly reversed
[3]
  inhibition of TTX-S NaV1.7 currents: inhibits
[4]
  inhibition of TTX-S NaV1.7 currents: inhibits
[5]
  effect on cell morphology or health: does not affect cell morphology or health
